Measurements taken from patent publication US20240148821A1, “PHARMACEUTICAL USE OF CYCLIC PEPTIDE COMPOUND” (CHUGAI SEIYAKU KABUSHIKI KAISHA, priority 2021, published 2024).
Numbered stars: 1 amine (or outer) side, 2 acyl side, 3 side chain; on linkers, the order of the positions; unused ones are H or OH. Bridge positions count the residues as written; N and C are the ends. Square brackets hold non-standard residues; d marks the D form. Peptide text beside a SMILES is read from it. * marks the point of attachment. hPhe(3-Cl-4-CF3) = N[C@@H](CCc1ccc(C(F)(F)F)c(Cl)c1)C(=O)O; hPhe(3-F,4-CF3) = N[C@@H](CCc1ccc(C(F)(F)F)c(F)c1)C(=O)O; NEtPhe(4-CF3) = CCN[C@@H](Cc1ccc(C(F)(F)F)cc1)C(=O)O; hPhe(4-CF3) = N[C@@H](CCc1ccc(C(F)(F)F)cc1)C(=O)O; 3Oxa8azabicyclo(3.2.1)octane = C1CC2COCC1N2*; NMePhe(4-Cl) = CN[C@@H](Cc1ccc(Cl)cc1)C(=O)O; NMePhe(4-F) = CN[C@@H](Cc1ccc(F)cc1)C(=O)O; NMedβ3hAla = C[C@H](CC(=O)[*:2])N(C)[*:1]; NMeGly(cPent) = CN[C@H](C(=O)O)C1CCCC1; NMeCha = CN[C@@H](CC1CCCCC1)C(=O)O; Hyp = O=C(O)[C@@H]1C[C@@H](O)CN1; NMeF = CN[C@@H](Cc1ccccc1)C(=O)O; NMeI = CC[C@H](C)[C@H](NC)C(=O)O; NMeD = CN[C@@H](CC(=O)O)C(=O)O; NMeL = CN[C@@H](CC(C)C)C(=O)O; NMehSer = CN[C@@H](CCO)C(=O)O; NMeV = CN[C@H](C(=O)O)C(C)C; Trifluoroethyl = FC(F)(F)C*; d(β3hA) = C[C@@H](N)CC(=O)O; NMeS = CN[C@@H](CO)C(=O)O; Pip = O=C(O)[C@@H]1CCCCN1; NMeA = CN[C@@H](C)C(=O)O; Piperidide = C1CCN(*)CC1; Ac5c = NC1(C(=O)O)CCCC1; Aze = O=C(O)[C@@H]1CCN1; Sar = CNCC(=O)O; Propyl = CCC*

Biological target: protein-protein interaction between Kras and SOS1 (biotin-tagged human Kras loaded with GDP, His-tagged human SOS1) (Homo sapiens (Human), UniProt P01116, G12D)
Experiment: Protein-protein interaction inhibition between Kras and SOS1 (KrasG12D-SOS PPI) using AlphaScreen;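 also: kras produced in E. coli, Ni-coupled donor beads and streptavidin acceptor beads, excitation 680 nm with emission detected at 520–620 nm via singlet oxygen transfer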
Assay type: biochemical
Conditions: AlphaScreen; biotin-tagged human Kras loaded with GDP, His-tagged human SOS1; read-out: KRAS G12D-SOS PPI IC50

How did the IC50 turn out when `CC[C@H](C)[C@@H]1NC(=O)[C@H](COCC(F)(F)F)N(C)C(=O)C[C@@H](C(=O)N2CCCCC2)N(C)C(=O)[C@H](C(C)C)N(C)C(=O)C2(CCCC2)NC(=O)[C@@H]2CCCN2C(=O)[C@H](CCc2ccc(C(F)(F)F)c(Cl)c2)NC(=O)CN(C)C(=O)[C@H](CC2CCCCC2)N(C)C(=O)[C@@H]2CCN2C(=O)[C@H](C)N(C)C1=O` [Compound 387] ([NMeS](Trifluoroethyl)I[NMeA][Aze][NMeCha][Sar][hPhe(3-Cl-4-CF3)]P[Ac5c][NMeV][NMeD]-Piperidide; lactam N-11) was run?
The IC50 was 4.2 nM.

`CC[C@H](C)[C@@H]1NC(=O)[C@H](CC(C)C)N(C)C(=O)C[C@@H](C(=O)N2CCCCC2)N(C)C(=O)[C@H](C2CCCC2)N(C)C(=O)C2(CCCC2)NC(=O)[C@@H]2CCCN2C(=O)[C@H](CCc2ccc(C(F)(F)F)c(Cl)c2)NC(=O)CN(C)C(=O)[C@H](Cc2ccc(F)cc2)N(C)C(=O)[C@@H]2CCN2C(=O)[C@H](C)N(C)C1=O` [Compound 388] ([NMeL]I[NMeA][Aze][NMePhe(4-F)][Sar][hPhe(3-Cl-4-CF3)]P[Ac5c][NMeGly(cPent)][NMeD]-Piperidide; lactam N-11) was tested. Which IC50 did it give?
Its IC50 is 0.5 nM.

With `CC[C@H](C)[C@@H]1NC(=O)[C@H](CCOC)N(C)C(=O)C[C@@H](C(=O)N2CCCCC2)N(C)C(=O)[C@H](C(C)C)N(C)C(=O)C2(CCCC2)NC(=O)[C@@H]2CCCN2C(=O)[C@H](CCc2ccc(C(F)(F)F)c(Cl)c2)NC(=O)CN(C)C(=O)[C@H](CC2CCCCC2)N(C)C(=O)[C@@H]2CCN2C(=O)[C@H](C)N(C)C1=O` [Compound 397] ([NMehSer](Me)I[NMeA][Aze][NMeCha][Sar][hPhe(3-Cl-4-CF3)]P[Ac5c][NMeV][NMeD]-Piperidide; lactam N-11) as the compound, how does the IC50 read?
The IC50 was 2.3 nM.

Which IC50 does the source give for `CCO[C@@H]1C[C@H]2C(=O)NC3(CCCC3)C(=O)N(C)[C@@H](C3CCCC3)C(=O)N(C)[C@H](C)CC(=O)N(C)[C@@H](CC(C)C)C(=O)N[C@@H]([C@@H](C)CC)C(=O)N[C@@H](C)C(=O)N3CC[C@H]3C(=O)N(CC)[C@@H](Cc3ccc(C(F)(F)F)cc3)C(=O)N(C)CC(=O)N[C@@H](CCc3ccc(C(F)(F)F)c(Cl)c3)C(=O)N2C1` [Compound 401] (cyclo(A[Aze][NEtPhe(4-CF3)][Sar][hPhe(3-Cl-4-CF3)][Hyp](Et)[Ac5c][NMeGly(cPent)][NMedβ3hAla][NMeL]I)) here?
The IC50 was 3.6 nM.

How did the IC50 turn out when `CC[C@H](C)[C@@H]1NC(=O)[C@H](C)NC(=O)C[C@@H](C)N(C)C(=O)[C@H](CC(C)C)N(C)C(=O)[C@H](Cc2ccccc2)N(C)C(=O)[C@H](CC(C)C)NC(=O)[C@H](CCc2ccc(C(F)(F)F)cc2)NC(=O)CN(C)C(=O)[C@H](Cc2ccc(Cl)cc2)N(C)C(=O)CN(C)C(=O)CN(C)C1=O` [Compound 406] (cyclo(AI[Sar][Sar][NMePhe(4-Cl)][Sar][hPhe(4-CF3)]L[NMeF][NMeL][NMedβ3hAla])) was run?
Its IC50 is 250 nM.

For `CCCOC[C@H]1C(=O)N(C)CC(=O)N[C@@H](CCc2ccc(C(F)(F)F)c(F)c2)C(=O)N2CCC[C@H]2C(=O)NC2(CCCC2)C(=O)N(C)[C@@H]([C@@H](C)CC)C(=O)N(C)[C@H](C(=O)N2C3CCC2COC3)CC(=O)N(C)[C@@H](CC(C)C)C(=O)N[C@@H]([C@@H](C)CC)C(=O)N(C)[C@@H](C)C(=O)N2CC[C@H]2C(=O)N1C` [Compound 408] ([NMeL]I[NMeA][Aze][NMeS](Propyl)[Sar][hPhe(3-F,4-CF3)]P[Ac5c][NMeI][NMeD]-{3Oxa8azabicyclo(3.2.1)octane}; lactam N-11), which IC50 is on record?
Its IC50 is 11 nM.

Which IC50 does the source give for `CC[C@H](C)[C@@H]1NC(=O)[C@H](CC(C)C)N(C)C(=O)C[C@@H](C(=O)N2CCCCC2)N(C)C(=O)[C@H]([C@@H](C)CC)N(C)C(=O)C2(CCCC2)NC(=O)[C@@H]2CCCN2C(=O)[C@H](CCc2ccc(C(F)(F)F)c(F)c2)NC(=O)CN(C)C(=O)[C@H](CC2CCCCC2)N(C)C(=O)[C@@H]2CCN2C(=O)[C@H](C)N(C)C1=O` [Compound 409] ([NMeL]I[NMeA][Aze][NMeCha][Sar][hPhe(3-F,4-CF3)]P[Ac5c][NMeI][NMeD]-Piperidide; lactam N-11) here?
Its IC50 is 2.4 nM.

`CC[C@H](C)[C@@H]1NC(=O)[C@H](C)N(C)C(=O)C[C@@H](C)NC(=O)[C@H](C(C)C)N(C)C(=O)C2(CCCC2)NC(=O)[C@@H]2CCCN2C(=O)[C@H](CCc2ccc(C(F)(F)F)c(Cl)c2)NC(=O)[C@H]2CCCN2C(=O)[C@H](CC2CCCCC2)N(C)C(=O)CN(C)C(=O)CN(C)C1=O` [Compound 412] (cyclo([Ac5c][NMeV][d(β3hA)][NMeA]I[Sar][Sar][NMeCha][dP][hPhe(3-Cl-4-CF3)]P)) was tested. Which IC50 did it give?
The IC50 was 120 nM.

`CC[C@H](C)[C@@H]1NC(=O)[C@H](CC(C)C)N(C)C(=O)C[C@@H](C)NC(=O)[C@H](C(C)C)N(C)C(=O)C2(CCCC2)NC(=O)[C@@H]2CCCN2C(=O)[C@H](CCc2ccc(C(F)(F)F)c(Cl)c2)NC(=O)CN(C)C(=O)[C@H](CC2CCCCC2)N(C)C(=O)[C@@H]2CCN2C(=O)[C@@H]2CCCCN2C1=O` [Compound 416] (cyclo([Ac5c][NMeV][d(β3hA)][NMeL]I[Pip][Aze][NMeCha][Sar][hPhe(3-Cl-4-CF3)]P)) was tested. Which IC50 did it give?
The IC50 was 54 nM.
